# Results from publication PMC11695783 (Frontiers in Pharmacology, 2024).
# Values joined by “and” are separate entries in the source; they are usually repeats but may differ in a detail not shown here. Equal entries are not always repeated. Structures can show the parent of a compound that is named as a salt.
# Key:
# [1] = system: Mycoplasma pneumoniae-infected mice (lung tissue); experiment: Histopathological assessment of lung tissue (HPS, response and recovery rates) in M. pneumoniae-infected mice; assay type: in vivo, BALB/c mice; parameters: HPS value (mean) / HPS: scale not given here; settings: tiamulin 40 mg/kg PO (fumarate soluble powder); for HPS: individual mice
# Description: (§1) Adult BALB/c mice (20–22 g) were divided into a control group, a positive group, and compound 16C groups at low (20 mg/kg), medium (40 mg/kg), and high-dose (80 mg/kg) levels and oral and intramuscular tiamulin treatment groups (40 mg/kg). We formulated the above dose range based on the dose at which tiamulin was approved for injection (10–20 mg/kg) and the dose previously reported (45 mg/kg) ([EMA, 1999]; [Xiao et al., 2016]). In summary, we selected similar doses for compound 16C in vivo study. 40 mg/kg was used as an intermediate value, one-half of it as a low dose, and two times of it as a high dose. To prepare the challenge solution, logarithmic phase culture suspensions were centrifuged at 1700 g for 10 min, and the pellets were suspended in sterile PBS to obtain 1 × 10^9 CFU/mL. Before the challenge, mice were anesthetized with tribromoethanol (250 mg/kg, IP). Mice in the control groups were intratracheally inoculated with sterile PBS, whereas mice in the other groups were intratracheally challenged with 50 μL (1 × 10^9 CFU/mL) M. pneumoniae suspension once a day for 3 days. Compound 16C and tiamulin (tiamulin-IM group) dissolved using the method mentioned in pharmacokinetic studies, and the tiamulin fumarate soluble powder was dissolved in ddH2O for oral administration. After the final challenge, antibiotics were administered at low, medium, and high-dose levels (see above) at 10 a.m. and 10 p.m. daily for 4 consecutive days. Normal saline containing 5% DMSO and 5% Tween-80 was administered as control and positive groups by thigh intramuscular injection. To compare the efficacy of compound 16C and tiamulin under the same route of administration, we used the original tiamulin for intramuscular administration in the same formulation. On the other hand, tiamulin fumarate soluble powder, approved for oral administration to treat animal mycoplasma diseases in China, was administered to mice by gavage. Based on a clinical study of lefamulin in community-acquired bacterial pneumonia (CABP), subjects were administered twice a day and the 96 ± 24 h of starting treatment was an essential point for early clinical response (ECR) ([Paukner et al., 2022]). We therefore stopped treatment at 96 h and sampled at 192 h to explore whether the disease worsened after cessation of treatment. Bronchoalveolar lavage fluid (BALF) and lungs were collected at 0, 96, 192 h (Samples of 0 h were collected before starting treatment, and mice were fed ad libitum without drug treatment during 96–192 h) after the first dose, BALF for cytokine and cytological analysis and lung for histopathological evaluation.
# Lung tissues were collected at 0, 96, and 192 h following drug administration. Lungs were collected from 6 mice in each group at 96 h and 13–15 mice in each group at 192 h. In addition, the lungs of 8 untreated infected mice were taken at 0 h as initial controls. Lung tissues were fixed in 4% paraformaldehyde, and whole-mount sections of paraffin-embedded lungs were stained with hematoxylin and eosin (H&E). The histopathologic score (HPS) was determined according to published protocols by a single pathologist who was unaware of the treatment status and groups of the animals ([Cimolai et al., 1992]). The HPS was based on individual grading of peribronchiolar/bronchial infiltrate, bronchiolar/bronchial luminal exudate, perivascular infiltrate, and parenchymal pneumoniae.
# [2] = system: Mycoplasma pneumoniae; experiment: In vivo pharmacodynamic study: Mycoplasma pneumoniae loads in BALF of infected mice; parameters: species or system BALB/c mice; settings: tiamulin 40 mg/kg PO (fumarate soluble powder); for MPcounts in BALF (AV): group AV; for MPcounts in BALF: individual mice
# Description: as §1
# (§2) Bronchoalveolar lavage was performed according to a standardized method ([Van Hoecke et al., 2017]). BALF was obtained following infusion of 0.5 mL PBS via tracheal cannulation into the lung twice (total 1 mL), and 200 µL was used for mycoplasma counts. The remaining BALF was centrifuged at 300 g for 10 min to separate the debris. The supernatants were stored at −80°C, and the debris was resuspended in the same volume of PBS containing red blood cell lysis buffer. A hemocytometer was used to count total cell numbers in BALF, and cell smears (Diff-Quik staining) were prepared to calculate the percentages of neutrophils, macrophages, and lymphocytes. IFN-γ, TNF-α, and CXCL1 levels in BALF samples were assessed using commercial ELISA kits using guidelines recommended by the manufacturer (Elabscience, Wuhan, China). Parallel data for each experimental group at each time point were obtained from six different mice.
# [3] = system: TNF-α; experiment: TNF-α in BALF of M. pneumoniae-infected mice (ELISA); assay type: in vivo, BALB/c mice; settings: tiamulin 40 mg/kg PO (fumarate soluble powder), individual mice
# Description: as §1, §2
# [4] = system: CXCL1; experiment: CXCL1 in BALF of M. pneumoniae-infected mice (ELISA); assay type: in vivo, BALB/c mice; settings: tiamulin 40 mg/kg PO (fumarate soluble powder), individual mice
# Description: as §1, §2
# [5] = system: IFN-γ; experiment: IFN-γ in BALF of M. pneumoniae-infected mice (ELISA); assay type: in vivo, BALB/c mice; settings: tiamulin 40 mg/kg PO (fumarate soluble powder); for IFN-γ in BALF (AV): group AV; for IFN-γ in BALF: individual mice
# Description: as §1, §2
# [6] = system: Mycoplasma pneumoniae strain M129 (ATCC 29342); experiment: Susceptibility assay (broth microdilution MIC, MBC); assay type: cell-based
# Description: (§3) Mycoplasma pneumoniae strain M129 (ATCC 29342) was obtained from American Type Culture Collection (Manassas, VA, United States) and cultured at 37°C in the presence of 5% CO2 in the modified SP-4 liquid medium (pH 7.4) containing 2.1% (w/v) CM1166 mycoplasma broth base medium (Oxoid, Hants, United Kingdom), 20% (v/v) fetal bovine serum (FBS, Bioexplorer, CO, United States), 0.4% yeast extract (Oxoid), 0.55% (w/v) CMRL 1066 w/L-glutamine culture media powder (MyBioSource, San Diego, CA, United States), 1% D-glucose (Macklin) and 0.004% phenol red (Macklin). […] The solid medium is based on the above formula with the addition of 1% agar, and the characteristic fried egg-like colonies were used for experiments following incubation for 7 d on plates.
# The broth microdilution MIC procedure was performed according to standardized methods for microdilution susceptibility testing of mycoplasma species ([Waites et al., 2012]). […] The concentration of organisms should be determined to approximately 10^6 CFU/mL prior to inoculation into 96-well plates. Due to the action of phenol red, the acidic metabolites of microbial growth can turn the medium yellow. […] The MBC assays were performed based on MICs following endpoint reading and the liquid in the high-concentration wells was removed for bacterial counting.
# [7] = system: Mycoplasma pneumoniae strain M129 (ATCC 29342); experiment: Time-kill curves; assay type: cell-based; parameters: M. pneumoniae count in time-kill curve: unit not given here
# Description: as §3
# The tubes were incubated at 37°C in 5% CO2 for 72 h, and 200 µL of the culture was removed every 12 h for 10-fold serial dilutions. The diluted cultures were plated on plates for further culture and counted after 7 d. The experiment was repeated three times.
compound,measurement,setting,value
"C=C[C@]1(C)C[C@@H](OC(=O)CSCCN(CC)CC)[C@]2(C)[C@H](C)CC[C@]3(CCC(=O)[C@H]32)[C@@H](C)[C@@H]1O [Tiamulin-PO, Tiamulin fumarate, reference compound]",HPS,[1]; 96 h,2.5 and 4 and 1 and 3
same,HPS,[1]; 192 h,1.5 and 2 and 1 and 8 and 0 and 3 and 4
same,Recovery,[1]; from HPS at 192 h,6.67%
same,Response,[1]; from HPS at 192 h,86.67%
same,MPcounts in BALF (AV),[2]; 96 h,4.578 Log10CFU/mL
same,MPcounts in BALF,[2]; 96 h,4.372 Log10CFU/mL and 4.349 Log10CFU/mL and 5.68 Log10CFU/mL and 4.443 Log10CFU/mL and 4.274 Log10CFU/mL and 4.354 Log10CFU/mL
same,MPcounts in BALF (AV),[2]; 192 h,4.3846 Log10CFU/mL
same,MPcounts in BALF,[2]; 192 h,4.0302 Log10CFU/mL and 4.805 Log10CFU/mL and 4.331 Log10CFU/mL and 4.53 Log10CFU/mL and 4.4765 Log10CFU/mL and 4.136 Log10CFU/mL
same,TNF-α in BALF,[3]; 96 h,13.0598 pg/mL and 17.5743 pg/mL and 24.463 pg/mL and 20.81 pg/mL and 21.310 pg/mL and 10.7269 pg/mL
same,TNF-α in BALF,[3]; 192 h,8.7059 pg/mL and 12.3017 pg/mL and 9.398 pg/mL and 5.239 pg/mL and 5.021 pg/mL and 15.24 pg/mL
same,CXCL1 in BALF,[4]; 96 h,47.9583 pg/mL and 40.7995 pg/mL and 44.8333 pg/mL and 37.1973 pg/mL and 31.7608 pg/mL and 43.0428 pg/mL
same,CXCL1 in BALF,[4]; 192 h,52.4056 pg/mL and 49.740 pg/mL and 60.3659 pg/mL and 36.7459 pg/mL and 45.7272 pg/mL
same,IFN-γ in BALF (AV),[5]; 96 h,32.2599 pg/mL
same,IFN-γ in BALF,[5]; 96 h,34.8842 pg/mL and 17.3704 pg/mL and 63.2217 pg/mL and 29.659 pg/mL and 25.3118 pg/mL and 23.1122 pg/mL
same,IFN-γ in BALF (AV),[5]; 192 h,34.0801 pg/mL
same,IFN-γ in BALF,[5]; 192 h,37.2747 pg/mL and 51.8224 pg/mL and 27.2214 pg/mL and 28.4425 pg/mL and 30.8711 pg/mL and 28.8485 pg/mL
CN(C)[C@@H]1C(O)=C(C(N)=O)C(=O)[C@@]2(O)C(O)=C3C(=O)c4c(O)cccc4[C@@](C)(O)[C@H]3C[C@@H]12 [tetracycline],MBC,[6],3.2 µg/mL
same,M. pneumoniae count in time-kill curve,"[7]; 1×MIC, time 0",6.522
same,M. pneumoniae count in time-kill curve,"[7]; 1×MIC, time 12",6.243
same,M. pneumoniae count in time-kill curve,"[7]; 1×MIC, time 24",5.358
same,M. pneumoniae count in time-kill curve,"[7]; 1×MIC, time 36",5.0751
same,M. pneumoniae count in time-kill curve,"[7]; 1×MIC, time 48",3.623
same,M. pneumoniae count in time-kill curve,"[7]; 1×MIC, time 60",4.011
same,M. pneumoniae count in time-kill curve,"[7]; 1×MIC, time 72",4.04
same,reduction of bacterial counts,"[7]; 1–2×MIC, 72 h",2.38–2.48 log10 CFU/mL
same,M. pneumoniae count in time-kill curve,"[7]; 2×MIC, time 0",6.522
same,M. pneumoniae count in time-kill curve,"[7]; 2×MIC, time 12",5.562
same,M. pneumoniae count in time-kill curve,"[7]; 2×MIC, time 24",5.13
same,M. pneumoniae count in time-kill curve,"[7]; 2×MIC, time 36",4.505
same,M. pneumoniae count in time-kill curve,"[7]; 2×MIC, time 48",3.395
same,M. pneumoniae count in time-kill curve,"[7]; 2×MIC, time 60",3.925
same,M. pneumoniae count in time-kill curve,"[7]; 2×MIC, time 72",4.141
same,M. pneumoniae count in time-kill curve,"[7]; 4×MIC, time 0",6.522
same,M. pneumoniae count in time-kill curve,"[7]; 4×MIC, time 12",5.527
same,M. pneumoniae count in time-kill curve,"[7]; 4×MIC, time 24",4.565
same,M. pneumoniae count in time-kill curve,"[7]; 4×MIC, time 36",4.182
same,M. pneumoniae count in time-kill curve,"[7]; 4×MIC, time 48",3.523
same,M. pneumoniae count in time-kill curve,"[7]; 4×MIC, time 60",3.499
same,M. pneumoniae count in time-kill curve,"[7]; 4×MIC, time 72",3.057
same,M. pneumoniae count in time-kill curve,"[7]; 8×MIC, time 0",6.522
same,M. pneumoniae count in time-kill curve,"[7]; 8×MIC, time 12",5.0382
same,M. pneumoniae count in time-kill curve,"[7]; 8×MIC, time 24",4.431
same,M. pneumoniae count in time-kill curve,"[7]; 8×MIC, time 36",4.11
same,M. pneumoniae count in time-kill curve,"[7]; 8×MIC, time 48",3.568
same,M. pneumoniae count in time-kill curve,"[7]; 8×MIC, time 60",3.5
same,M. pneumoniae count in time-kill curve,"[7]; 8×MIC, time 72",3.462
same,M. pneumoniae count in time-kill curve,"[7]; 16×MIC, time 0",6.522
same,M. pneumoniae count in time-kill curve,"[7]; 16×MIC, time 12",5.216
same,M. pneumoniae count in time-kill curve,"[7]; 16×MIC, time 24",4.191
same,M. pneumoniae count in time-kill curve,"[7]; 16×MIC, time 36",3.827
same,M. pneumoniae count in time-kill curve,"[7]; 16×MIC, time 48",3.742
same,M. pneumoniae count in time-kill curve,"[7]; 16×MIC, time 60",3.715
same,M. pneumoniae count in time-kill curve,"[7]; 16×MIC, time 72",3.031
same,M. pneumoniae count in time-kill curve,"[7]; 32×MIC, time 0",6.522
same,M. pneumoniae count in time-kill curve,"[7]; 32×MIC, time 12",4.677
same,M. pneumoniae count in time-kill curve,"[7]; 32×MIC, time 24",4.038
same,M. pneumoniae count in time-kill curve,"[7]; 32×MIC, time 36",3.597
same,M. pneumoniae count in time-kill curve,"[7]; 32×MIC, time 48",3.571
same,M. pneumoniae count in time-kill curve,"[7]; 32×MIC, time 60",3.497
same,M. pneumoniae count in time-kill curve,"[7]; 32×MIC, time 72",3.078
same,M. pneumoniae count in time-kill curve,"[7]; 64×MIC, time 0",6.522
same,M. pneumoniae count in time-kill curve,"[7]; 64×MIC, time 12",4.323
same,M. pneumoniae count in time-kill curve,"[7]; 64×MIC, time 24",4.306
same,M. pneumoniae count in time-kill curve,"[7]; 64×MIC, time 36",3.779
same,M. pneumoniae count in time-kill curve,"[7]; 64×MIC, time 48",3.079
same,M. pneumoniae count in time-kill curve,"[7]; 64×MIC, time 60",3.41
same,M. pneumoniae count in time-kill curve,"[7]; 64×MIC, time 72",3.079
same,concentration at which bactericidal effect was achieved,"[7]; static time-kill, 72 h",≥ 4 × MIC
